Structures are written as SMILES.

The melting point is the temperature, or range, at which the solid turns liquid. For the compound `CCCOc1ccc(-c2ccc3c(c2)C=C(C(=O)Nc2ccc(CN(C)C4CCOCC4)cc2)CCN3C=O)cc1`, the melting point lay within 207 to 209 °C.

Turning to `CCCCCCCCCCCCCCC1COC2(CC(c3ccccc3)NC(c3ccccc3)C2)O1` (configuration not stated), the melting point fell in the range of 63 to 70 °C.

Take `CCN1C(=O)C(C)(C)C(=O)Nc2ccc(C=O)cc21`: the melting point fell in the range of 188 to 191 °C.

The compound `COC(=O)c1cc(=O)c2cc(OC)cc([N+](=O)[O-])c2o1` yielded a melting point of 192 to 193 °C.

Turning to `COc1ccc(-c2[nH]nc3c2C(=O)c2c(NC(=O)Cc4ccc(NC(=O)CN)cc4)cccc2-3)cc1`, the melting point is 228 °C.

For `COC(=O)C1=C(C)OC(OC)(OC)CC1NC(C)=O` (configuration not stated), the melting point is 160 to 162 °C.

The compound `NC(=O)c1sc2nccc(N3CCCN(c4ccc(Cl)nn4)CC3)c2c1N` showed a melting point of 232 to 234 °C.

On to `CCN(CC)CCNC(=O)c1cc(F)c2cc(I)ccc2n1`, for which the melting point is 58 to 60 °C.

Compound `CC(=O)OC1C(COC(=O)c2ccccc2)OC(n2cc(F)c(=O)[nH]c2=O)C1F` (configuration not stated) registered a melting point of 177 to 179 °C.

`CCOC(=O)c1c(N2CCN(C)CC2)c2cc(C)ccc2n(-c2ccccc2)c1=O` showed a melting point of 188 °C.

For `CC(C(=O)O)n1nnc2ccc(Oc3nn(C)c(C(F)(F)F)c3Cl)cc21` (configuration not stated), the melting point fell in the range of 209 to 211 °C.

Regarding `COc1cc(NC(=S)NC(=O)/C=C/c2ccco2)ccc1-c1cc2ccccc2oc1=O`, the melting point was in the range of 227 to 230 °C.

Regarding `CCCCCCCCCCNc1c(Nc2ccc(CCCNC[C@H](O)COc3cccc4[nH]c5ccccc5c34)cc2)c(=O)c1=O`, the melting point came to 225 °C.

As to `Cc1cccc(S(=O)(=O)n2cncn2)c1C#N`, the melting point lay within 142 to 144 °C.

With `CNc1nc(C)c(-c2ccnc(Nc3cccc(S(=O)(=O)NCCO)c3)n2)s1`, the melting point was 189 to 190 °C.

For `N#Cc1cnc2cc(O)c(O)cc2c1Nc1ccc(Cl)cc1F`, the melting point lay in the range of 270 to 272 °C.

On to `CCCNC(=O)C(CCC(=O)NCCCOC(C)=O)NC(=O)C=Cc1ccco1` (configuration not stated), for which the melting point lay in the range of 154 to 156 °C.

For `CCOc1csc(C2OC(=O)NC2=O)c1` (configuration not stated), the melting point lay in the range of 144 to 146 °C.

Compound `FC(F)(F)c1ccc(CCc2cc(OCc3ccccc3)c(OCc3ccccc3)nn2)cc1Cl` had a melting point of 169 to 170 °C.

Turning to `CC(C)(C)c1ccc(OCC(N)CO)cc1` (configuration not stated), the melting point came to 102 °C.

For the compound `CC1CC1n1cc(C(=O)O)c(=O)c2cc(F)c(N3CCNCC3)cc21` (configuration not stated), the melting point was 110 to 120 °C.

Compound `O=C1N[C@H]2OC(c3ccccc3)=N[C@@H]12` gave a melting point of 159 °C.

`Nc1ccc2nc3n(c2c1)CC(C(=O)OCc1ccccc1)NC3` (configuration not stated) showed a melting point of 115 to 118 °C.

As for `CCOC(=O)COCC(=O)c1ccccc1`, the melting point lay in the range of 33 to 35 °C.

Regarding `CS(=O)(=O)c1ccc(-c2cc(-c3nc4ccccc4c(=O)n3-c3ccccc3)sc2N2CCOCC2)cc1`, the melting point is greater than 275 °C.

Turning to `CC(C)C(=O)NCCC1C=CC=CC1=O` (configuration not stated), the melting point fell in the range of 88 to 93 °C.

`C=Cc1cn(-c2ccccn2)c2c1C(=O)CC(C)(C)C2` registered a melting point of 150 to 154 °C.

With `COc1ccc(Nc2nc(NC3CCCCCC3)nc(Oc3ccc(C(C)=O)cc3Cl)n2)cc1Cl`, the melting point is 186 to 196 °C.

As to `O=C1COc2cc(F)c(N3N=C4CCCCC4C3=O)cc2N1Cc1ccccn1` (configuration not stated), the melting point was in the range of 216 to 219 °C.

`CC(C)c1ccc(S(=O)(=O)Nc2cnc(Cl)cc2I)cc1`: the melting point worked out at 160 °C.

In turn, `CCc1ccc(Cl)c(CC)c1NS(=O)(=O)c1cc(S(=O)(=O)Nc2c(CC)ccc(Cl)c2CC)c2cc(O)ccc2c1` showed a melting point of 142 to 144 °C.

With `O=C(NC1CCCCC1)N1CCc2cc(S(=O)(=O)N3CC(c4ccccc4)NC3=O)ccc21` (configuration not stated), the melting point was 273 to 275 °C.

For `COc1c(OC)c(O)c2c(=O)c3ccc(O)c(OC)c3[nH]c2c1OC`, the melting point was in the range of 214 to 215 °C.

As to `COC(=O)c1ccc(-c2ccc(-c3ccccc3)c(-c3ccc4c(c3)C(C)(C)CCC4(C)C)c2)cn1`, the melting point was 160 to 162 °C.

For the compound `CC12CCC(=O)NC1=CCc1ccccc12` (configuration not stated), the melting point was in the range of 123 to 124 °C.

With `Cc1oc(-c2cc3ccccc3s2)nc1COc1ccc(CCCn2ccnc2)cc1`, the melting point is 142 to 143 °C.

For `Nc1ccccc1Sc1ccncc1`, the melting point was 103 to 107 °C.

`CC(C)(C)c1ccc(OCC(O)CN2CCC3(CC2)CSC2=C(O3)c3cc(N4CCOCC4)ccc3C(=O)C2=O)cc1` (configuration not stated) gave a melting point of 107 to 109 °C.

The compound `Cn1cc(-c2cc3cccnc3[nH]2)c2cc(-c3nn[nH]n3)ccc21` registered a melting point of 303 °C.

`O=C(O)c1cc([N+](=O)[O-])cc2c1CCCC2`: the melting point was in the range of 209 to 212 °C.

`Cn1cc(C2=C(c3cn(CCC(=O)O)c4ccccc34)C(=O)NC2=O)c2ccccc21` came in with a melting point of 256 to 258 °C.

On to `O=C1CSc2ccc(S(=O)(=O)Cc3c(Cl)cccc3Cl)cc2N1`, for which the melting point lay within 244 to 246 °C.

In turn, `CCOCC(COCC)Oc1ccc(/C=C/C(=O)O)c(Oc2ncc(C(F)(F)F)cc2Cl)c1` returned a melting point of 62 to 63 °C.

Compound `CCCCCCCCCCOc1cc(OCCCOc2ccc(OCc3ccccc3)cc2)cc(C(=O)OC)c1` showed a melting point of 68 to 70 °C.

Regarding `CCCC[C@H](NC(=O)C(CS)C(F)(F)F)C(=O)O` (some centres not stated), the melting point is 96 to 98 °C.

Compound `COc1cc2c(Nc3ccc(Sc4ccccn4)cc3)c(C#N)cnc2cc1F` returned a melting point of 231 to 233 °C.

`O=c1ccc2ccc(CC3CO3)cc2o1` (configuration not stated) displayed a melting point of 110 to 112 °C.

`CC1(C)CCC(C)(C)c2cc(-c3ccc(O)c(-c4ccc(C(=O)O)cc4)c3)ccc21` displayed a melting point of 264 to 267 °C.

In the case of `CN(CC#Cc1cc(CN2CCOCC2)cc2c(=O)c(C(=O)NCc3ccc(Cl)cc3)cn(C)c12)CC(O)CO` (configuration not stated), the melting point was 140 to 142 °C.

With `CCS(=O)(=O)c1cn(C)c2ccccc2c1=O`, the melting point is 164 to 166 °C.

`Cc1nc(N2CCN(C)CC2)ccc1N1CCCn2c1nc1c(Cl)ccc(C(OC(F)F)C(F)(F)F)c12` (configuration not stated) registered a melting point of 193 to 195 °C.

Take `c1ccc(-c2cc(N3CCNCC3)nc3ccccc23)cc1`: the melting point was in the range of 133 to 134 °C.

Compound `CC(=O)NC(=N)NCCSCc1[nH]cnc1C` had a melting point of 163 to 164 °C.

`CCOc1cc(N)c(Cl)cc1C(=O)[NH+]([O-])CC1CN(Cc2ccccc2Cl)CCO1` (configuration not stated) yielded a melting point of 154 to 157 °C.

`Cc1ccc(S(=O)(=O)OCC2COc3ccc([N+](=O)[O-])c(N)c3O2)cc1` (configuration not stated) came in with a melting point of 155 °C.

Compound `CN(c1ncccc1[N+](=O)[O-])C1CCN(Cc2ccccc2)CC1` returned a melting point of 92 to 95 °C.

Take `CCn1c(=O)c2c(nc(/C=C/c3cccc(OC(=O)c4ccccc4)c3)n2C)n(CC)c1=O`: the melting point lay within 223 to 224 °C.

Take `O=c1c2c(Cl)cc(Cl)cc2n(Cc2ccccc2)c(=O)n1Cc1cccc(Cl)c1`: the melting point was in the range of 123 to 129 °C.

Compound `CC1c2onc(-c3ccc(Cl)cc3)c2CCC1(C)C(=O)O` (configuration not stated) returned a melting point of 165 to 170 °C.

`N#CC1(c2ccccc2)CCC2(CC1)OCCO2` yielded a melting point of 108 to 110 °C.

As to `O=C(NCc1cccc([N+](=O)[O-])c1)c1[nH]c2ccc(Cl)cc2c1S(=O)(=O)c1ccccc1`, the melting point was 253 to 254 °C.

With `N#CC1(N2C(=O)c3cccc(Cl)c3C2=O)CCCCC1`, the melting point was in the range of 115 to 116 °C.

Regarding `O=C(O)CCC(=O)CCS`, the melting point lay in the range of 40 to 42 °C.

For the compound `CCn1nc(C)c2c1C1=NC(C)CN1C(C)=N2` (configuration not stated), the melting point was 145 to 147 °C.

`C[Si](C)(C)NS(C)(=O)=O` displayed a melting point of 69 to 74.5 °C.

On to `COC(Cn1ncc(-c2ccc(S(C)(=O)=O)cc2)c(-c2ccc(F)cc2)c1=O)c1ccccc1` (configuration not stated), for which the melting point was 135 to 137 °C.

On to `O=C(O)c1ncn2c1[C@@H]1CCN1C(=O)c1c-2ccc(F)c1Cl`, for which the melting point fell in the range of 225 to 226 °C.

Regarding `CN1C(=O)N(C)P(C)(=S)C1=O` (configuration not stated), the melting point is 95 °C.

As to `C#CCOC1(C(F)(F)F)CN(C)C(=O)Nc2ccc(Cl)cc21` (configuration not stated), the melting point was in the range of 230 to 232 °C.

Compound `Nc1nc(Cl)c2ccccc2n1` returned a melting point of 275 to 278 °C.

For `Cc1oc(-c2ccccc2)nc1COc1ccc2oc(CCCC#N)cc2c1`, the melting point lay within 114 to 115 °C.

For the compound `Cc1cc2cn[nH]c2c(C(=O)NC2(C3CC3)CC2)c1NC(=O)c1cc(OCC(F)(F)F)nn1-c1ncccc1Cl`, the melting point was 240 to 242 °C.

`COc1ccc(C(=O)Nc2ccccc2)cc1NCc1ccc(OC(C)=O)cc1` registered a melting point of 193 to 195 °C.

`COc1ccc(C=CCN2CCc3nc(N)sc3CC2)c(OC)c1` came in with a melting point of 95 to 100 °C.

As for `CC(C)N(CCOc1ccc(CC2SC(=O)NC2=O)cc1)C(C)C` (configuration not stated), the melting point fell in the range of 134 to 135 °C.

As to `CSc1nc(-c2ccncc2)cc(=O)n1C`, the melting point fell in the range of 176 to 178 °C.

`CCOCc1nc2c(N)nc3cc(N4CCC4=O)ccc3c2n1CCCOC(C)C`: the melting point was in the range of 185 to 186 °C.

In the case of `CC(=O)Nc1ccc2c(c1)OCc1cc([N+](=O)[O-])ccc1C2=O`, the melting point came out at 171 °C.

Compound `COc1cccc(NC(=S)Nc2cscc2C)c1N` showed a melting point of 148 to 153 °C.

`CCCCc1nn(-c2ccccc2C(F)(F)F)c(=O)n1Cc1ccc(-c2ccccc2S(=O)(=O)NC(C)(C)C)cc1` had a melting point of 168 to 170 °C.

Consider `C=CCc1cc2c(c(CC=C)c1O)NC(=O)CC2`, for which the melting point lay within 86 to 88 °C.

Take `CC(C)C[C@H](NC(=O)OCc1ccccc1)C(=O)NCCCNC(=O)[C@H](CC(C)C)NC(=O)OCc1ccccc1`: the melting point lay within 177 to 178 °C.

`CC(CCN1c2cccc3cccc(c23)S1(=O)=O)N1CCN(c2ccc(F)cc2)CC1` (configuration not stated) had a melting point of 122 °C.

`COc1ccccc1C(CNc1c(C#N)cnn2cccc12)N1CCOCC1` (configuration not stated) gave a melting point of 157 °C.

The compound `CCc1nc2nccc(C)c2[nH]1` showed a melting point of 117 to 119 °C.

For `COc1cc(C(=O)O)ccc1Cc1cn(C)c2ccc(CC(C)NC(=O)N(C)C)cc12` (configuration not stated), the melting point was in the range of 162 to 163 °C.

Take `C=Cc1ccc(CSCCNC(=O)CCCC(=O)O)cc1`: the melting point lay within 118 to 119 °C.

The values above are taken from a melting point compilation (Tetko et al.; mined from patent text by program, amines drawn as free bases though some values may be those of a salt).
